Tested on: IOP (intra-ocular pressure)
Test: Clinical studies: change from baseline IOP after 20 nL nanodoses of bimatoprost
Type: in vivo, humans
Details: ~1 μg BP dosed as 20 nL on Days 0-3; IOP collected ~24 hours post-dose
Procedure: These IOP (intra-ocular pressure) data were collected ˜24 hours post-dose on each day. […] The Day 5 data shown in FIG. 1 below are the change from baseline IOP values following application of Lumigan.

Question: Which “IOP-lowering effect (change from baseline IOP)” value does the source give for `CCNC(=O)CCC/C=C\C[C@@H]1[C@@H](/C=C/[C@@H](O)CCc2ccccc2)[C@H](O)C[C@@H]1O` [BP, bimatoprost] here?
Answer: The value was “IOP-lowering effect can occur”.

From US20130018360A1 (priority 2011, published 2013)
